Biological target: THB2 (Chlamydomonas reinhardtii, UniProt R9RZJ6)
Experiment: UV-visible absorption
Assay type: binding
Details: Fe(III) heme

SMILES | UV-visible absorption | UV-visible absorption (excess imidazole)
CC(=O)O [acetate] | this protein, like THB1 and a small number of TrHbs | 
c1c[nH]cn1 [imidazole] |  | addition of excess imidazole to our preparations of THB2 nearly eliminates the discrepancies

— publication PMC6214630 (Biochimica et biophysica acta. General subjects, 2018)
